Experimental data: US20080255076A1, “Steroid-Derived Pharmaceutical Compositions” (JadoLabs GmbH, priority 2004, published 2008)

Key:
Raft liposomes = test: Disrafter-Liposome Raftophile Assay (D-LRA); details: for % disrafting in the DLRA: indicator not stated; for disrafting activity in the DLRA (in words): significance above 25% or below −25%; for % disrafting in the DLRA with GS-96: indicator GS-96 0.2 μM; for % disrafting in the DLRA with GS-96 / % disrafting in the DLRA with perylene: test compound 100 μM final, negative = raft augmentation; for % disrafting in the DLRA with perylene: indicator perylene 2 μM
HIV-1 strain NL4-3 = test: HIV assay; format: cell-based; details: compared to solvent; for inhibition of HIV infection: 30 μM, HeLa TZM cells; for inhibition at 30 µM: Human immunodeficiency virus 1, NL43, HeLa TZM cells, read-out: inhibition of HIV infection
Influenza virus = test: Virus budding assay (influenza assay); format: cell-based; details: MDCK cells; test compound 1 h; below 100% = inhibition
PR8 virus = test: microbe, parasite or virus in culture; format: cell-based, influenza virus
[1] = test system: vesicular stomatitis virus (VSV); format: cell-based
Wild type SV40 viruses = test: SV40 infection assay; format: cell-based, Simian Virus 40; details: HeLa cells
[2] = test system: Rat basophilic leukemia (RBL-2H3) cells; test: Degranulation assay (β-hexosaminidase release); format: cell-based; details: 100 μM, compared to solvent vehicle
Experimental: The assay measures release of β-hexosaminidase as a marker of release of various preformed pharmacological agents in response to clustering of the high affinity IgE receptor (FcεRI) by means of multivalent antigen-IgE complexes. Rat basophilic leukemia (RBL-2H3) cells, a commonly used model of mast cell degranulation, are sensitized with anti-DNP specific IgE and challenged with multivalent DNP-BSA. The release of β-hexosaminidase into the supernatant is measured by enzymatic conversion of the fluorogenic substrate 4-methylumbelliferyl-N-acetyl-[…] to N-acetyl-β-D-glucosamine and highly fluorescent methylumbelliferone and quantified by fluorescence detection in a Tecan Safire™ plate reader. • 2. Materials […]
Two to 24 hours before incubation with test compounds the medium was removed and cells were sensitized with 0.4 μg/ml anti-DNP IgE in fresh medium. […] Hexosaminidase activity in supernatants and lysates was measured by incubating 25 μl aliquots with 100 μl MUG substrate solution in a 96-well plate at 37° C. for 30 min. […] Fluorescence was measured in a Tecan Safire™ plate reader at 365 nm excitation and 440 nm emission settings.
Each compound is tested in duplicates in at least three independent experiments. β-hexosaminidase release is calculated after subtraction of unspecific release (release without addition of antigen) using the formula: […]

[3] = unidentified influenza virus, PR8, MDCK, read-out: inhibition of PR8 virus replication
[4] = Betapolyomavirus macacae, M-HeLa, 30 μM, compared to solvent

| Molecule | disrafting activity in the DLRA (in words) (Raft liposomes) | % disrafting in the DLRA with GS-96 (Raft liposomes) | % disrafting in the DLRA with perylene (Raft liposomes) | inhibitory effect on viral infection in the VSV counterscreen (in words) [1] | further results |
| --- | --- | --- | --- | --- | --- |
| CC(C)CCC[C@@H](C)[C@H]1CC[C@H]2[C@@H]3CC=C4C[C@@H](O)CC[C@]4(C)[C@H]3CC[C@]12C [cholesterol, reference compound] | do not show significant disrafting activity | – | – | – | % disrafting in the DLRA (Raft liposomes): 0% |
| CC[C@H]1CCC2C3CCC4C[C@H](N=[N+]=[N-])CC[C@]4(C)C3CC[C@@]21C (stereo partly drawn) [Compound 10ag, 5alpha-Pregnan-3alpha-azide] | high negative or positive values | −187% | −71.8% | – | – |
| C[C@]12CC[C@H](O)C[C@@H]1CC[C@@H]1[C@@H]2CC[C@]2(C)C(=O)CC[C@@H]12 [epiandrosterone, reference compound] | do not show significant disrafting activity | – | – | – | % disrafting in the DLRA (Raft liposomes): 0% |
| CCCCCCCCCCCC=C1CC[C@H]2[C@@H]3CCC4CC(=O)CC[C@]4(C)[C@H]3CC[C@]12C (relative stereo) [Compound 10ak, cis-Δ^17(20)-Dodecylidene-3-androstanone] | high negative or positive values | – | – | – | inhibition of HIV infection (HIV-1 strain NL4-3): 23% |
| C/C=C1/CCC2C3CCC4C[C@@H](O)CC[C@]4(C)C3CC[C@]12C (stereo partly drawn) [Compound 10ad, cis-Δ^17(20)-5alpha-Pregnen-3beta-ol] | high negative or positive values | about −66% | about −105% | no inhibitory effect on viral infection at all | virus budding, percentage with respect to an untreated control (Influenza virus): 61%; inhibition at 20 µM (PR8 virus; [3]): 59.6%; inhibition at 30 µM (Wild type SV40 viruses; [4]): 15.2% |
| CO[C@@H]1CC[C@@]2(C)[C@@H](CC[C@H]3[C@@H]4CCC[C@@]4(C)CC[C@@H]32)C1 [Compound 10ac, 3alpha-Methoxy-5alpha-androstane] | high negative or positive values | – | about +68% | no inhibitory effect on viral infection at all | inhibition at 30 µM (Wild type SV40 viruses; [4]): 12.9% |
| C/C=C1/CCC2C3CCc4cc(OC)ccc4C3CC[C@]12C (stereo partly drawn) [Compound 10dc, cis-Δ^17(20)-19-Norpregna-1,3,5(10),17(20)-tetraen-3-yl methyl ether] | high negative or positive values | – | −139% | – | inhibition at 30 µM (HIV-1 strain NL4-3): 38% |
| C/C=C1/CC[C@H]2[C@@H]3CCc4cc(OC(C)=O)ccc4[C@H]3CC[C@]12C (relative stereo) [Compound 10db, cis-Δ^17(20)-19-Norpregna-1,3,5(10),17(20)-tetraen-3-yl acetate] | high negative or positive values | – | −536% | no inhibitory effect on viral infection at all | inhibition of HIV infection (HIV-1 strain NL4-3): 27%; inhibition of SV40 infection (Wild type SV40 viruses; 30 μM, compared to solvent): 52.2% |
| C[C@]12CC[C@@H](O)C[C@@H]1CC[C@@H]1[C@@H]2CC[C@]2(C)C(=O)CC[C@@H]12 [Androsterone, reference compound] | do not show significant disrafting activity | – | – | – | % disrafting in the DLRA (Raft liposomes): 0% |
| C/C=C1/CCC2C3CCc4cc(O)ccc4C3CC[C@]12C (stereo partly drawn) [Compound 10da, cis-Δ^17(20)-19-Norpregna-1,3,5(10),17(20)-tetraen-3-ol] | high negative or positive values | – | −729% | no inhibitory effect on viral infection at all | inhibition at 30 µM (HIV-1 strain NL4-3): 18%; inhibition at 15 µM (Wild type SV40 viruses; Betapolyomavirus macacae, M-HeLa, 15 μM): 29.6% |
| CC[C@H]1CC[C@H]2[C@@H]3CC[C@H]4C[C@@H](O)CC[C@]4(C)[C@H]3CC[C@]12C [Compound 10af, 5alpha-Pregnan-3beta-ol] | high negative or positive values | −74.7% | −217% | no inhibitory effect on viral infection at all | inhibition at 50 µM (PR8 virus; [3]): 27.9%; inhibition at 30 µM (Wild type SV40 viruses; [4]): 18.9% |
| C/C=C1/CCC2C3CCC4CC(=O)CC[C@]4(C)C3CC[C@]12C (stereo partly drawn) [Compound 10ae, cis-Δ^17(20)-5alpha-Pregnen-3-one] | high negative or positive values | ~−20% | about −43% | – | virus budding, percentage with respect to an untreated control (Influenza virus): about 140%; inhibition at 50 µM (PR8 virus; [3]): 32.9% |
| cis-Δ^17(20)-Dodecylidene-3alpha-aminoandrostan [Compound 10al] | high negative or positive values | – | −216% | – | inhibition of PR8 virus replication (PR8 virus; 12.5 μM, MDCK cells): 54%; inhibition of release of β-hexosaminidase [2]: 61% |
